Results published in patent US20220117917A1, “PH-ACTIVATED NANOPARTICLES” (Ohio State Innovation Foundation, priority 2018, published 2022).

Legend:
BT474 cells = experiment: Cell viability and Western blot; type: cell-based, human
Protocol: (§1) Immunoblotting. Immunoblotting was performed as described previously (Liu Y, et al. Nature 2015 520:697-701). Briefly, total cell lysates were solubilized in lysis buffer (50 mM Tris, pH 7.5, 150 mM NaCl, 1 mM EDTA, 0.5% NP-40, 0.5% Triton X-100, 1 mM phenylmethylsulfonyl fluoride, 1 mM sodium fluoride, 5 mM sodium vanadate, 1 μg each of aprotinin, leupeptin, and pepstatin per ml). Proteins were resolved by SDS-PAGE gels and then proteins were transferred to PVDF membranes (Bio-Rad). The membranes were blocked with 5% nonfat milk for 1 h at room temperature prior to incubation with indicated primary antibodies. Subsequently membranes were washed and incubated for 1 h at room temperature with peroxidase-conjugated secondary antibodies (Santa Cruz Biotechnology). Following several washes, chemiluminescent images of immunodetected bands on the membranes were recorded on X-ray films using the enhanced chemiluminescence (ECL) system (Perkinelmer) according to the manufacturer's instructions.
(§2) Cell viability assay. Equal numbers of cells were plated in 12 well plates in triplicate. After incubation with indicated reagents for 72 hours, cell viability was quantified using Vi-Cell cell viability analyzer (Beckman Coulter).

HER18 cells = experiment: Cell viability and Western blot; type: cell-based, human
Protocol: as §1, §2

MDA-MB453 cells = experiment: Cell viability; type: cell-based, human; details: 72 h; mutant p53
Protocol: as §2

HER18R cells = experiment: Cell viability and Western blot, trastuzumab-resistant cells; type: cell-based, human; details: along with trastuzumab 1 μg/ml, 72 h
Wip1 = target: T1, Wip1 (Homo sapiens, UniProt O15297); details: cited from earlier work
T1 sequence (O15297 1-605): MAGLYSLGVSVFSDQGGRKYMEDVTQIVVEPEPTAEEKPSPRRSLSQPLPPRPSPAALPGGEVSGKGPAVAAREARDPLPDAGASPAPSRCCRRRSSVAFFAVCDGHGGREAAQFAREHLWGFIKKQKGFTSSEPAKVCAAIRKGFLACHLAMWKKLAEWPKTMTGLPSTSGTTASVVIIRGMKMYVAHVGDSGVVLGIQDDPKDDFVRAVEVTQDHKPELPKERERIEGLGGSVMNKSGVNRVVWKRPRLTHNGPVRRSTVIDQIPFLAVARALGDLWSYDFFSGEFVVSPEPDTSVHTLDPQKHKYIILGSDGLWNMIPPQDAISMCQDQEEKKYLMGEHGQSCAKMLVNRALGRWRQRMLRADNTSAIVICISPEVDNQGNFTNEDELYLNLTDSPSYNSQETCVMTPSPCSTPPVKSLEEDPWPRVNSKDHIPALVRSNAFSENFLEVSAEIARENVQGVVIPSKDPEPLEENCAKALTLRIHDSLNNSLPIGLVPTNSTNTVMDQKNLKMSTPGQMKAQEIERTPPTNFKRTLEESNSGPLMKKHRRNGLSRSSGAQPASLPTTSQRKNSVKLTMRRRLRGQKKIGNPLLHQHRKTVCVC

[1] = cited from earlier work
[2] = cited from earlier work; remark: listed apart in the source
[3] = design: species or system mice; details: mouse, in vivo
Protocol: The tumor targeting capability of the nanoparticles was next investigated in mice. Indocyanine green (ICG) was encapsulated in the nanoparticles for in vivo imaging. […] To confirm the observation from whole animal imaging, various organs were harvested for ex vivo imaging to check the biodistribution of ICG after sacrificing the mice at 24 h. […] The antitumor efficacy and safety of the WIP1 and/or miR-21 inhibitor-laden nanoparticles were also investigated in vivo by treating orthotopic HER18R mammary tumor-bearing mice. The tumors were established by injecting 2,000,000 HER18R cells per animal into the fat pad of 6-8 week-old female nude mice. The tumor-bearing mice were divided randomly into four groups: blank nanoparticles, WIP1 inhibitor-laden nanoparticles, miR-21 inhibitor-laden nanoparticles, and WIP1+miR-21 inhibitors-laden nanoparticles. Mice were treated with 1.0 mg/kg body weight of miR-21 inhibitor and/or 5.0 mg/kg of WIP1 inhibitor encapsulated in the nanoparticles via intravenous injection when the tumor reached a volume of ˜150 mm^3 at 21 days after implantation. […] Moreover, side effect of the drug-laden or blank nanoparticles was negligible.

[4] = Electrophoretic stability assay of anti-miR21 oligonucleotide; type: in vitro ADME; details: 37° C.
Protocol: Electrophoretic gel assay. Free anti-miR21 oligonucleotide and in-MW@NP (in PBS or serum) were mixed with loading buffer, and then loaded into 2% wt agarose gel with […] ethidium bromide. Electrophoresis was conducted in 1×TEA buffer at 80 V for 10 min. The result gels were analyzed using a UV illuminator (FluorChem™ E System, CA, USA) to show its location of anti-miR21 oligonucleotide.

Row | Molecule | sensitivity (cell viability) (BT474 cells; 72 h, mutant p53) | sensitivity (cell viability) (HER18 cells; 72 h, wildtype p53) | phosphorylated CHK2 and p21 levels (HER18 cells; immunoblotting) | sensitivity (cell viability) (MDA-MB453 cells) | sensitization to trastuzumab (HER18R cells) | selectivity for Wip1 over other phosphatases (Wip1) | solubility in water [1] | bioavailability in vivo [2] | ICG fluorescence in liver [3] | ICG signal / localization [3] | cell proliferation and viability (BT474 cells; HER2+/p53-mutant cells with 17q23 amplification) | onset of degradation [4] | time oligonucleotide observable ([4]; up to 36 h) | stability in blood ([2]; in vivo)
1 | Cc1ncc(Cl)cc1NCc1ccc(C(=O)N[C@@H](CC2CCCC2)C(=O)NC2CC2)s1 [GSK2830371] | notably insensitive | very sensitive | significantly increased the levels of phosphorylated CHK2 and the p53-induced p21 | notably insensitive | sensitized | selectivity for Wip1 over 21 other phosphatases | poor solubility in water | poor bioavailability in vivo |  |  |  |  |  | 
2 | CC1(C)C(/C=C/C=C/C=C/C=C2\N(CCCCS(=O)(=O)O)c3ccc4ccccc4c3C2(C)C)=[N+](CCCCS(=O)(=O)[O-])c2ccc3ccccc3c21 [free ICG, Indocyanine green] |  |  |  |  |  |  |  |  | weak fluorescence | no notable signal |  |  |  | 
3 | anti-miR-21: anti-miR-21 oligonucleotide; in some embodiments UCAACAUCAGUCUGAUAAGCUAG (SEQ ID NO: 5) (further chemistry not given here) |  |  |  |  | sensitized |  |  |  |  |  | significantly reduced the cell proliferation and viability | started to degrade in a few minutes | less than 2 h | relatively unstable in blood
